Laboratory results from patent publication US8986733B2, “Materials and methods for nerve repair” (University of Florida Research Foundation, Inc., priority 2001, dated 2015).

How the values were obtained:
CSPG = CSPG neoepitope (Ab1918) immunolabeling of acellular rat sciatic nerve segments treated en bloc; format: biochemical; details: en bloc treatment 16 h
Excerpt: Preparation of acellular nerve grafts treated with chondroitinase. Adult (180-200 g) female SPRAGUE DAWLEY rats (HARLAN, Indianapolis, Ind.) were used as nerve donors and recipient hosts. Donor rats were anesthetized with halothane and decapitated. Sciatic nerves were exposed through a gluteal muscle-splitting incision and isolated free of underlying fascia. A 15-mm nerve segment was excised rostral to the bifurcation into common peroneal and tibial nerves. The segments were rinsed with cold sterile Ringer's solution, stabilized by pinning the ends to a thin plastic support, and transferred to a cryogenic vial. The vials were submerged in liquid nitrogen for 2 minutes and then transferred to a 37° C. water bath for 2 minutes. This freeze/thaw cycle was repeated, yielding acellular nerve grafts that were then stored in liquid nitrogen. On the day before grafting, the nerve grafts were warmed to room temperature and incubated in 100 μl phosphate buffered saline pH 7.4 (PBS) containing 2 units/ml chondroitinase ABC (SIGMA, St. Louis, Mo.) or in PBS (vehicle) only for 16 hours at 37° C. The grafts were rinsed twice with Ringer's and kept on ice prior to use. […]
Immunocytochemistry. Axonal regeneration was assessed by GAP-43 immunofluorescence and digital image analysis. […]

rat sciatic nerve [1] = assay: Human-to-rat acellular nerve xenograft model, GAP-43 axon scoring; format: in vivo; details: 8-day acellular human nerve xenografts in rat
Excerpt: Human nerve fascicles (of similar diameter to the rat sciatic nerve) were grafted into a gap made in the rat sciatic nerve. Serial sections of the 8-day interpositional nerve xenografts were scored for GAP-43-labeled axonal profiles by digital image analysis. Data represent the means (−SEM) of 2 vehicle-treated and 2 chondroitinase-treated grafts assessed at the specified distances into the graft (proximal to distal).
In the following experiments, the hypothesis that chondroitinase treatment improves nerve regeneration through acellular human nerve grafts in a rat xenograft model was tested. Subunits (individual fascicles) taken from human nerves were treated en bloc with vehicle or chondroitinase ABC. Ten-mm interpositional nerve grafts were joined to the rat host sciatic nerve by epineurial neurorrhaphy reinforced with fibrin glue. Each of 2 host rats received bilateral grafts, one vehicle-treated and one chondroitinase-treated graft. Regeneration was initially examined after 8 days. Axonal growth was assessed at specified spatial intervals within the graft by scoring GAP-43-immunopositive profiles in transverse sections.

rat sciatic nerve [2] = assay: Bilateral sciatic nerve crush injury (axonotmesis), GAP-43 axon scoring; format: in vivo; details: 2 days after injury; for axonal regeneration after nerve crush injury (GAP-43 immunoreactivity) vs vehicle: 1 U injected
Procedure: Surgical procedures for nerve transection and nerve crush experiments. All surgical procedures were performed according to Institutional Animal Care and Use Committee (IACUC) approved protocols. Young adult SPRAGUE DAWLEY rats (HARLAN Indianapolis, Ind.) were deeply anesthetized with xylazine (15 mg/kg, i.m.) followed by ketamine-HCl (110 mg/kg, i.p.). Six animals received bilateral nerve crush injuries. Sciatic nerves were exposed and then crushed with firm pressure for thirty seconds with a DUMONT #5 forceps at a site 4 mm distal to the tendon of the internal obdurator. The crush site was marked with an epineurial suture. In a separate set of experiments, eight rats received bilateral sciatic nerve transection injuries using serrated scissors. The proximal and distal stumps were […] by epineurial neurorrhaphy using 9-0 ETHILON sutures. Fibrin glue (fibrinogen and thrombin) was then applied to stabilize the union. In both injury models, the right sciatic nerves were injected 2-mm distal to the injury with chondroitinase ABC (1 U in 2 μl) (high-purity, protease-free; SIGMA CHEMICAL CO., St. Louis, […].). Left sciatic nerves (with the same injury as the right side) were injected with vehicle alone (0.1% bovine serum albumin in PBS). Muscle incisions were sutured and the skin closed with metal clips. After recovery from the anesthetic, animals were returned to standard housing. Two days (for crush injury) and four days (for transection injury) after surgery, nerves were removed under anesthesia and fixed as described below. One of the eight animals receiving nerve transection and repair was excluded because loss of continuity in one nerve occurred during convalescence.
The hypothesis that chondroitinase treatment improves axonal growth through the site of nerve crush injury was tested. Bilateral axonotmesis was achieved by severely crushing the sciatic nerves while maintaining the continuity of the nerve sheaths. […] Regenerating axons were labeled by GAP-43 immunofluorescence and scored by digital image analysis. […]

## chondroitinase ABC
CSPG
  CSPG degradation (Ab1918 neoepitope immunostaining): thoroughly degraded CSPG side-chains
Rat sciatic nerve [1]
  average number of axons (GAP-43-immunopositive profiles) entering grafts vs control grafts: more than three-fold greater
Rat sciatic nerve [2]
  latency or rate of axonal regeneration after crush: no indication that the latency or rate of axonal regeneration was altered
  axonal regeneration after nerve crush injury (GAP-43 immunoreactivity) vs vehicle: no significant difference
Rat sciatic nerve [2]; listed as chondroitinase
  axonal regeneration after nerve crush injury (GAP-43 immunoreactivity) vs vehicle: not significantly effected
